In patent EP0385952A2, “Use of a naphthalenmethanamino derivative as antiinflammatory agent and pharmaceutical compositions containing it” (SANDOZ AG, priority 1989, dated 1990):
Like-named read-outs stand apart in the source and are kept apart here. Marks after values point to notes of the source that are not given here.

Tests used:
[1] = tested on: Cyclooxygenase (prostaglandin synthetase); assay: Cyclooxygenase inhibition; format: biochemical; details: at 100 µM
human neutrophils = assay: Zymosan-stimulated superoxide release; format: cell-based; details: Neutrophil, read-out: IC₅₀ for zymosan-stimulated superoxide release
Solubility in water = format: physicochemical; details: at 25°C
mice = assay: TPA-induced pinnal swelling in mice (irritant contact dermatitis, 2.1.2.); format: in vivo; details: therapeutic, topical, pinnal weight after 6 hours
Protocol: (§1) Skin irritation with arachidonic acid or cantharidin is often used to experimentally induce inflammation in order to evaluate the anti-inflammatory activity of a compound [see e.g. Inflammation 8 (1984) 134-135; 10 (1986) 205-214]. NMRI mice (8 animals per group) receive 10 µl of a 10 % solution of arachidonic acid [J.M. Young et al., J. Invest. Derm. 82 (1986) 367-371] in acetone or, respectively, 0.08 % cantharidin [K.E. Swingle et al., Arch. Int. Pharmacodyn. Ther. 254 (1981) 168-176] in acetone applied to the medial and lateral surface of the right external ear. Treatment is performed either prophylactically 30 minutes before irritation (arachidonic acid) or, respectively, either simultaneously with the application of irritant solution or therapeutically 20 minutes after irritation (cantharidin), by a single epicutaneous application of the test compound dissolved in a mixture of N,N-dimethylacetamide, acetone and alcohol (2:2:4). The evaluation of the test group is effected by comparison with a control group of animals having received on the right ear lobe only the carrier substance or the irritant solution. The animals are killed 1.5 hours (arachidonic acid) or, respectively, 17 hours (cantharidin) after application of the irritant and efficacy in assessed by determination of the differences in auricular weight. Differences in weights (D) of right (involved) and left (uninvolved) pinnae of animals treated with test compound and arachidonic acid or cantharidin (T-group) are compared with differences in mice treated with arachidonic acid only or cantharidin only (C-group). Efficacy (%) is calculated according to the equation: [formula]
This model is similar to the above (see 2.1.1.). Skin inflammation is induced with 15 µl of 0.23 % croton oil in a mixture of dimethylacetamide, acetone and ethanol (2:4:4), or with 10 µl of 0.005 % TPA [12-O-tetradecanoylphorbol-13-acetate; Sigma] prepared in acetone with 0.5 % dimethylsulfoxide. Topical treatment is performed either simultaneously with the irritation (croton oil) or 20 minutes after the application (TPA). The test compound is prepared in DAE. Efficacy is assessed 6 hours after onset of irritation by determination of the auricular weight as described above.

12 + 15-lipoxygenase = 12 + 15-lipoxygenase inhibition (neutrophil functions); format: cell-based; details: read-out: IC₅₀ for 12 + 15-lipoxygenase
NMRI mice = assay: Arachidonic acid-induced pinnal swelling in mice (irritant contact dermatitis, 2.1.1.); format: in vivo; details: prophylactic, epicutaneous, pinnal weight
Protocol: as §1

[2] = tested on: Peritoneal exudate cells of NMRI mice (macrophage population); assay: TPA-induced prostaglandin E₂ (PGE₂) release; format: cell-based; details: Mus musculus, TPA 20 ng/ml, 1h, read-out: IC₅₀ for the inhibition of TPA-induced PGE₂ release
Protocol: Peritoneal exudate cells of NMRI mice (strain NMRI) pretreated with 1.5 ml thioglycollate ip 3 days previously are harvested by peritoneal lavage, washed in phosphate-buffered saline (PBS without Ca⁺⁺ and Mg⁺⁺) and resuspended in DMEM medium supplemented with 10 % fetal calf serum (FCS). 1x10⁶ cells in 1 ml are placed into wells of Costar-24 tissue culture plates and cells are allowed to adhere for 24 hours at 37°C and 5 % CO₂. Cells are then washed twice with PBS and the remaining, more than 95 % pure macrophage population is stimulated with 12-O-tetradecanoylphorbol-13-acetate (TPA) (20 ng/ml, 1h) in DMEM medium without FCS. Conditioned media are centrifuged and PGE₂ levels are determined using a ¹²⁵I radioimmunoassay. Samples are assayed in duplicate. Inhibition of PGE₂ release by test compounds is calculated as percent inhibition compared to the controls.

[3] = tested on: OF₁-mouse resident peritoneal macrophages; assay: Zymosan-induced release of TXB₂, PGE₂ and LTC₄; format: cell-based; details: Peritoneal macrophage, 2 hours
Protocol: The test compound is added in various concentrations to monolayers of OF₁-mouse resident peritoneal macrophages isolated as described in J. Schnyder and M. Baggiolini, J. Exp. Med. 148 (1978) 435-450. 0.5 ml of the suspension containing 1.2 x 10⁶ cells/ml DMEM (Dulbecco's modified Eagles medium, non-essential amino acids, 2 mM L-glutamine, 100 U/ml penicillin/streptomycin) containing 2 % heat-inactivated fetal calf serum and 20 U heparin/ml is added to each well of 24-well plates (diameter 1.6 cm) and allowed to adhere at 37°C for 2 hours in 5 % CO₂/air. The monolayers are then washed with PBS and 0.5 ml DMEM containing 1 % heat-inactivated fetal calf serum added. Various concentrations of the test substance in the same medium (containing a maximum final concentration of 1 % DMSO) are added, the final volume being 0.98 ml, and after 10 minutes at 37°C, the cells are stimulated by addition of 20 µl of a 1-20 v/v dilution of zymosan particles (Sigma Chemie, Deisenhofen, FRG) in 50 mg/ml PBS. After 2 hours at 37° C, the media are removed, centrifuged at 1300 g for 5 minutes and decanted. The cells are lysed with 1ml 0.01 % digitonin. The supernatants are then analysed by radioimmunoassay procedures for thromboxane B₂, prostaglandin E₂ and leukotriene C₄. Lactate dehydrogenase activities in the medium and cell lysates are also measured as an indication of cell toxicity.

**Q.** What does the source list for `CN(C/C=C/c1ccc(O)cc1)Cc1cccc2ccccc12` [compound of the invention, (E)-N-methyl-N-[3-(4-hydroxyphenyl)-2-propenyl]-1-naphthalene-methanamine]?
**A.** Cyclooxygenase (prostaglandin synthetase) inhibition [1]: not inhibited; IC50 (human neutrophils): > 100 µM; solubility (Solubility in water): < 0.1 mg/mL; Efficacy (%) (mice; test concentration 1.2 %): 51%; Efficacy (%) (mice; test concentration 3.6 %): 60*** %; IC50 (12 + 15-lipoxygenase): 100 µM; Efficacy (%) (NMRI mice; test concentration 1.2 %): 33** %; Efficacy (%) (NMRI mice; test concentration 3.6 %): 48*** %; IC50 [2]: 1 to 3 µM; IC50 ([3]; read-out: IC₅₀ for LTC₄): 8 µM; IC50 ([3]; read-out: IC₅₀ for PGE₂): 1.5 µM; IC50 ([3]; read-out: IC₅₀ for TXB₂): 6 µM
